Assay results published in ChEMBL document CHEMBL3507680, “University of Dundee, Gates Library screen for HepG2 cell viability”.

Assay: Human HepG2 cell viability assay in 384 well format
Format: toxicity, cell-based
Parameters: dose 125 nL, time 70.5 hour; cytotoxicity at 70.5 h: concentration not given beside the values
Conditions: HepG2 cells, read-out: Inhibition

Row | SMILES | cytotoxicity at 70.5 h
1 | Cc1c(CN2CCCCC2)c(O)n(CCO)c(=O)c1C#N | -2.11%
2 | NC(=O)C1CCN(C(=O)CCSCc2ccccc2)CC1 | -5.5%
3 | O=C(NCCN1CCOCC1)c1nc(-c2ccc3[nH]ccc3c2)no1 | -30.5%
4 | Cc1c(C)n(Cc2ccccn2)c2nc3c(c(N)c12)CCCCC3 | 27.5%
5 | COc1ccc(N2Cc3nc(=O)n(C(C)C)n3C2=O)cc1 | -15.6%
6 | CN(C(=O)Cn1nc(-c2ccccc2F)ccc1=O)C1CCS(=O)(=O)C1 (configuration not stated) | -25.7%
7 | CN(C(=O)Cn1nc(-c2ccc(Cl)cc2)ccc1=O)C1CCS(=O)(=O)C1 (configuration not stated) | -21.1%
8 | Cc1nnc2ccc(N3CCC(C(=O)Nc4nccs4)CC3)nn12 | 1.41%
9 | Cc1c(C)n(Cc2ccccn2)c2nc3c(c(N)c12)CCCCCC3 | 22%
10 | O=c1ccc(-c2cccs2)nn1CN1CCc2ccccc2C1 | -23.7%
11 | O=C1CC(c2ccc3c(c2)OCO3)c2c(n3ccsc3nc2=O)N1 (configuration not stated) | -9.84%
12 | Cc1ccc(N2Cc3nc(=O)n(C(C)C)n3C2=O)cc1 | -28.9%
13 | Cc1oc(-c2nc(C#N)c(NCC(C)C)o2)cc1S(=O)(=O)N1CCCC1 | -13.1%
14 | Cc1oc(-c2nc(C#N)c(NC(C)(C)C)o2)cc1S(=O)(=O)N1CCCC1 | -8.41%
15 | COc1ccc(NS(=O)(=O)CC2=NC(=O)n3cccc3C2=O)cc1Cl | -8.91%
16 | O=c1c(S(=O)(=O)N2CCCCC2)cccn1Cc1cccnc1 | -9.28%
17 | COc1ccc(-c2nc(C)cc(SCC(N)=O)n2)cc1 | -2.23%
18 | CCCN(CCC)c1ncc(S(=O)(=O)c2ccc(C)cc2)c(N)n1 | -19.9%
19 | CCCN(CCC)c1ncc(S(=O)(=O)c2ccc(OC)cc2)c(N)n1 | -9.23%
20 | Cc1c(C(=O)O)cnn1-c1ccc(-c2nc(C3CC3)no2)cn1 | -14%
21 | Cc1c(C(=O)N2CCN(c3ccccn3)CC2)n(C)c2ccc(Cl)cc12 | -13.6%
22 | CCc1c(C)n(CCOC)c2nc3ccccc3n2c1=O | 19.8%
23 | CC1CC(=O)c2cnc3nc(N4CCOCC4)[nH]c(=O)c3c2C1 (configuration not stated) | -15.8%

Row | SMILES | cytotoxicity at 70.5 h
24 | OCCNc1nc(NCCc2ccccc2)nc2nccnc12 | -1.57%
25 | CC1(C)CC(=O)c2cnc3nc(N4CCCCC4)nc(O)c3c2C1 | -11%
26 | COc1ccccc1C1CC(=O)Nc2c1c(=O)[nH]n2C(C)C (configuration not stated) | 25.6%
27 | CCOC(=O)CC(c1ccc(OC)cc1)c1c(O)n[nH]c1C (configuration not stated) | -13.7%
28 | O=C(NCCc1nccs1)C(c1ccccc1)n1cnnn1 (configuration not stated) | -4.94%
29 | CC(O)CNC(=O)c1nc(Cc2c(Cl)cccc2Cl)no1 (configuration not stated) | -4.9%
30 | c1cc(C2CCN(c3cnccn3)CC2)ncn1 | 1.96%
31 | CN(C)c1nccc(C2CN(c3ccccc3)CCO2)n1 (configuration not stated) | -4.49%
32 | CN(C)CCn1nc(C2CCN(S(=O)(=O)N(C)C)C2)c2cccnc21 (configuration not stated) | -3.16%
33 | Cc1cc(C)n(CCNCc2cc(-c3ccc(F)cc3)c[nH]c2=O)n1 | 1.4%
34 | Cn1cc(CN2CCc3nc4sccc4c(=O)n3CC2)cn1 | -3.58%
35 | CCC(C)NC(=O)c1cc(S(=O)(=O)N(C)C)c(C)s1 (configuration not stated) | -4.34%
36 | Cc1cc(Nc2cnccn2)cc(C2CCCN2)n1 (configuration not stated) | 12.2%
37 | Nc1ncc(-c2ccc(Cl)cc2)c(C2CCCNC2)n1 (configuration not stated) | 37.3%
38 | Cc1cc(N(C)C)nc(C2COCCN2Cc2csc(C)n2)n1 (configuration not stated) | 10.4%
39 | Cc1cc(NC2CC3(CCN(Cc4cscn4)C3)C2)ncn1 (configuration not stated) | -6.43%
40 | c1cnnc(N[C@@H]2CC[C@@H]3CN(Cc4ccc5cc[nH]c5c4)C[C@@H]32)c1 | -9.52%
41 | COCC(=O)NC[C@]1(O)CN(Cc2ccc3c(c2)OCCO3)C[C@H]1O | -12.9%
42 | CS(=O)(=O)N[C@@H]1CN(Cc2ccc3ncccc3c2)C[C@H]1O | -5.91%
43 | CCn1cc(NC(=O)CN2CCC(Oc3ccccc3C)CC2)c(C)n1 | -2.26%
44 | Cc1cc(C)nc(Nc2nccnc2C2CCCN(C(CO)CO)C2)n1 (configuration not stated) | -6.39%
45 | NC(=O)CN1CCC(c2noc3cc(F)ccc23)CC1 | 39.4%
46 | CC(C)(C)C(=O)N1CCCC1(C(=O)N1CCCC1)c1cnccn1 (configuration not stated) | 18.9%

Row | SMILES | cytotoxicity at 70.5 h
47 | CCc1nnc(Nc2cc(C)nc(C3CN(C(=O)C(C)C)CCO3)c2)s1 (configuration not stated) | 9.87%
48 | COc1cccc(F)c1CN1CCC(c2nc(C)cc(C)n2)C1 (configuration not stated) | 14.3%
49 | Cn1ccnc1CNC(=O)CC1CCCCO1 (configuration not stated) | -6.84%
50 | COc1ccccc1OCCc1nnc(NC(=O)C2CC23CCC3)s1 (configuration not stated) | -2.4%
51 | CC1CCCN(c2ncc(-c3ccccc3F)c(-c3nccn3C)n2)C1 (configuration not stated) | -12.5%
52 | CCCC(=O)Nc1cccc([C@H]2C[C@@H](NC(C)=O)CCO2)c1 | -12.2%
53 | CC(=O)N[C@H]1CCO[C@@H](c2cccc(NC(=O)C(C)(C)C)c2)C1 | -7.68%
54 | Cc1cc(N2CCOC(c3ccc(N(C)C)cn3)C2)nc(N)n1 (configuration not stated) | -6.31%
55 | Cc1ccc(-c2ccccc2CC2(C(=O)NC(C)C)CCCNC2)cc1 (configuration not stated) | -3.27%
56 | CC(=O)N1CC(C(=O)NC(C)c2cnn(C)c2C)C1 (configuration not stated) | -4.41%
57 | Cn1ccc(NC(=O)CN2CCN(C3CCCC3)C(=O)C2)n1 | -4.86%
58 | CC(=O)N1CCC(c2ncc(C(=O)Nc3ccc(F)cc3)c(C)n2)CC1 | 12.6%
59 | COc1ccc(NC(=O)c2cnc(C3CCN(C)CC3)nc2C)cc1 | -2.26%
60 | CN1C[C@H](c2ccccc2)[C@H]2CN(C(=O)Cc3cccc(O)c3)CC[C@H]21 | -2.25%
61 | Cc1ccc(C(=O)NCc2ccnc(C3CCCOC3)n2)s1 (configuration not stated) | 10.5%
62 | Cc1nccn1[C@@H]1CC[C@@H](N(C)S(=O)(=O)c2ccc(F)cc2)[C@H]1O | -3.16%
63 | CC(C)C(=O)NCCc1nc(-c2ccncc2)n[nH]1 | -2.41%
64 | OCCN1CCCC(c2cccc(-c3ccccc3F)n2)C1 (configuration not stated) | -5.22%
65 | Cn1ccc(C(=O)N2CCCCC2c2cc(CCO)[nH]n2)n1 (configuration not stated) | -1.7%
66 | CN1CCCC(c2nccnc2-c2cccc(C(F)(F)F)c2)C1 (configuration not stated) | -0.583%
67 | Cc1nc(C)n(CCC(=O)NCC2CCCOC2)n1 (configuration not stated) | -0.994%
68 | CCc1ccccc1Nc1noc2c1CN(C(=O)c1ccn(C)n1)CC2 | 2.97%
69 | COCCC(=O)NCc1ccc(-c2ncncc2C(=O)N(C)C)cc1 | 6.32%

Row | SMILES | cytotoxicity at 70.5 h
70 | CN(C)C(=O)c1cncnc1-c1ccc(CNC(=O)C2CCCO2)cc1 (configuration not stated) | 10.6%
71 | CC(C)C(NC(=O)C1CCCC1)c1cc(O)nc(-c2cccnc2)n1 (configuration not stated) | 11%
72 | CCn1ncc(CN2CCC(c3ncc(Cl)cc3S(C)(=O)=O)CC2)c1C | -8.43%
73 | C/C(Cl)=C/CNC(=O)[C@H]1CC[C@]2(CC1)CN(C)C(=O)c1ccccc1O2 | -6.71%
74 | COCCC(=O)NCCc1nc2cc(-c3ccc(OC)cc3)ncn2n1 | -6.53%
75 | CCc1c(C)nn2c(O)cc(C3CCN(C(=O)c4ccccn4)C3)nc12 (configuration not stated) | -2.35%
76 | CCc1c(C)nn2c(O)cc(C3CCN(C(=O)c4ccn(C)n4)C3)nc12 (configuration not stated) | 16.4%
77 | O=C(c1cc(C2CC2)on1)N1C[C@H]2CC[C@](O)(c3ccc(F)cc3)[C@H]2C1 | -0.34%
78 | CN(C)Cc1cnn(-c2ccccc2C(=O)NCCC2CCCN2C)c1 (configuration not stated) | -0.0444%
79 | Cc1cn[nH]c1C1COCCN1Cc1ccsc1 (configuration not stated) | -0.803%
80 | Cc1nc(CN2CCOCC2c2[nH]ncc2C)cs1 (configuration not stated) | 1.5%
81 | CN(C)Cc1cccc(-c2cccnc2C(=O)NCC2CC2)c1 | -2.77%
82 | Cc1ccsc1C(=O)NCc1ccnc(C2CCCOC2)n1 (configuration not stated) | 13.6%
83 | Cc1nccc(CN2Cc3nccn3CC2c2ccccc2)n1 (configuration not stated) | -4.01%
84 | CCc1c(C)nc2cc(C3CCN(Cc4ccncc4C)C3)nn2c1O (configuration not stated) | -3.92%
85 | O=C(CCC1CCCO1)N1CCc2nc(-c3cnccn3)nc(O)c2C1 (configuration not stated) | -3.93%
86 | Oc1nc(-c2cnccn2)nc2c1CCN(Cc1ccccn1)C2 | -5.26%
87 | O=C(Cc1ccc(F)cc1)N1CCCC(c2n[nH]c3nccnc23)C1 (configuration not stated) | 11.2%
88 | Cn1nc(C2CCCN(Cc3ccc(F)cc3F)C2)c2nccnc21 (configuration not stated) | 0.45%
89 | CC(C)Oc1cccc(CN2CCC(c3n[nH]c4ncccc34)CC2)c1 | 30.6%
90 | COc1ncccc1C(Cc1ccsc1)NC(=O)Cn1cccnc1=O (configuration not stated) | 22.1%
91 | Cc1c(C(=O)N2CCC(c3nc(C)n4ccsc34)CC2)cnn1C | -4.61%
92 | Cc1cc(-c2cnn(CCNC(=O)c3snnc3C)c2C2CC2)on1 | -2.4%

Row | SMILES | cytotoxicity at 70.5 h
93 | Cc1cc(-c2cnn(CCNC(=O)Cc3ccccn3)c2C2CC2)on1 | -3.25%
94 | CN(C)Cc1cc(C2CCN(C(=O)C3CC34CCC4)CC2)nn1C (configuration not stated) | -0.0295%
95 | Cc1csc(C(Cc2ccsc2)NC(=O)CN(C)Cc2cccnc2)n1 (configuration not stated) | -0.677%
96 | Nc1ncnc2nc(C3CCCCN3)ccc12 (configuration not stated) | -6.59%
97 | Cc1ccc(-c2ccccc2CC2CNCCNC2=O)c(C)c1 (configuration not stated) | 31.4%
98 | CCc1nc2ccccc2c(=O)n1CC1(O)CCN(C(=O)C2CC2)CC1 | -11.5%
99 | Cc1cc2c(=O)n3c(nc2s1)CCN(Cc1cnc(C)n1C)CC3 | -4.27%
100 | Cc1cc2c(=O)n3c(nc2s1)CCN(Cc1[nH]cnc1C)CC3 | -9.2%
101 | Cc1cc2c(=O)n3c(nc2s1)CCN(Cc1cncn1C)CC3 | -7.45%
102 | CCc1nc2ccccc2c(=O)n1CC1(O)CCNCC1 | -11.1%
103 | Cc1nc(CC(=O)N2CCC(c3nn(C)c4ncccc34)CC2)cs1 | -9.42%
104 | Cc1ccc(CN2Cc3ccccc3O[C@]3(CC[C@H](CO)CC3)C2)s1 | 5.08%
105 | Cc1nccc(C2(C)CCCNC2)n1 (configuration not stated) | 16.5%
106 | COc1cccc(CN(Cc2ccco2)Cc2[nH]cnc2C)c1 | 6.19%
107 | Cc1nc(CN2CCC(O)(c3ccccc3F)CC2)c2ccccn12 | 11.2%
108 | c1ccc([C@@H]2CN(Cc3ccncc3)C[C@H]2c2cc[nH]n2)cc1 | -1.08%
109 | Cc1ccc2c(CC(=O)N(C)CCN(C)C)c(C)[nH]c2c1C | 2.2%
110 | Cc1nn(C(C)C)c(C)c1CN1CCN(C2CCCCC2)C(=O)C1 | -3.48%
111 | CCc1cccc2c(CC(=O)N(C)CCN(C)C)c(C)[nH]c12 | -8.74%
112 | CN(C)C(=O)c1cn[nH]c1C1CCCN1Cc1nccn1C (configuration not stated) | 22.5%
